Activity calls are given as the source filed them.
Experiments:
Melanocortin receptor 4 = Melanocortin receptor 4 (Homo sapiens, UniProt P32245); experiment: inhibitors of MC4R cAMP signaling – cell-based, TR-FRET, biased antagonists, dose response (AID 602298); format: functional;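 also: antagonist potency against agonist-stimulated cAMP production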
[1] = cAMP pathway inhibition in counterscreen cell line – TR-FRET cAMP detection, counter-screen for MC4R biased antagonist project, dose response (AID 602305); format: functional, cell-based;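 also: U2OS cells stimulated with forskolin near its EC80 as the cAMP inducer; potency is for inhibition of forskolin-stimulated cAMP signaling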
[2] = biological target: Melanin-concentrating hormone receptor 1 (Homo sapiens, UniProt Q99705); experiment: Late-stage fluorescence-based counterscreen for antagonists of the G-protein coupled receptor 7 (GPR7): cell-based dose response assay to identify antagonists of the melanin-concentrating hormone receptor 1 (MCHR1) Set 5.; format: functional
Sequence of Melanin-concentrating hormone receptor 1 (Q99705 whole entry): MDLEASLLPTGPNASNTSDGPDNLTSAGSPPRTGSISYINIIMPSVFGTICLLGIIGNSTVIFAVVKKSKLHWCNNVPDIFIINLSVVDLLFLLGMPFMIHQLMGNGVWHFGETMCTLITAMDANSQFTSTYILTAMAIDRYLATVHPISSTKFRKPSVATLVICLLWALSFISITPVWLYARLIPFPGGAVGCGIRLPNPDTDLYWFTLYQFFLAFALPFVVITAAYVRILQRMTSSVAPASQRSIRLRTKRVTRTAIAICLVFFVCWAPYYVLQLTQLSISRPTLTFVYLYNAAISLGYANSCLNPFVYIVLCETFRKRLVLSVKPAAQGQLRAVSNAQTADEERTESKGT

[3] = biological target: Neuropeptides B/W receptor type 1 (Homo sapiens, UniProt P48145); experiment: human NPBW1 receptor blockade, IC50 – cell-based, fluorescence, dose response, set 5, late-stage follow-up (AID 588566); format: functional
Sequence of Neuropeptides B/W receptor type 1 (P48145 whole entry): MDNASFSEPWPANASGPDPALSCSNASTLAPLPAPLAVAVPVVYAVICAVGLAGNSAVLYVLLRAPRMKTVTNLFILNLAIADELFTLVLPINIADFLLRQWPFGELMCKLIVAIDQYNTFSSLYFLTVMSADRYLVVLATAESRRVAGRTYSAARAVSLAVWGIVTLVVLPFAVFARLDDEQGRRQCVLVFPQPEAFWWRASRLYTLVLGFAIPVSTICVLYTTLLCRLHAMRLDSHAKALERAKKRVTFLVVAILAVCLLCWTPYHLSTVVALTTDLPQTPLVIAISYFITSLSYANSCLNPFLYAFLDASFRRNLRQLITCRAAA

[4] = Late-stage results from the probe development effort to identify antagonists of the G-protein coupled receptor 7 (GPR7): luminescence-based cell-based dose response counterscreen assay to determine cytotoxicity of antagonist compounds Set 3.; format: functional
[5] = microbe, parasite or virus in culture; format: functional; conditions: Mycobacterium tuberculosis
[6] = Trypanosoma cruzi growth suppression in host cells – NIH3T3 host cells, beta-gal luminescence, confirmation (AID 2044); format: functional, cell-based;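 also: intracellular parasites grown in NIH/3T3 mouse fibroblasts as host cells; luminescent beta-galactosidase reporter signal from transgenic T. cruzi replicating inside host cells; inhibitors lower the luminescence signal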
[7] = NIH3T3 cell viability loss – ATP luminescence, mouse fibroblasts, counter-screen, dose response (AID 2010); format: functional, cell-based;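 also: cells exposed to compound for about 90 hours before reading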
[8] = biological target: T1, High affinity choline transporter 1 (Homo sapiens, UniProt Q9GZV3); experiment: human choline transporter potentiators, potency – cell-based, 10-point CRC, membrane potential dye, dose response (AID 602376); format: functional
T1 sequence (Q9GZV3 whole entry): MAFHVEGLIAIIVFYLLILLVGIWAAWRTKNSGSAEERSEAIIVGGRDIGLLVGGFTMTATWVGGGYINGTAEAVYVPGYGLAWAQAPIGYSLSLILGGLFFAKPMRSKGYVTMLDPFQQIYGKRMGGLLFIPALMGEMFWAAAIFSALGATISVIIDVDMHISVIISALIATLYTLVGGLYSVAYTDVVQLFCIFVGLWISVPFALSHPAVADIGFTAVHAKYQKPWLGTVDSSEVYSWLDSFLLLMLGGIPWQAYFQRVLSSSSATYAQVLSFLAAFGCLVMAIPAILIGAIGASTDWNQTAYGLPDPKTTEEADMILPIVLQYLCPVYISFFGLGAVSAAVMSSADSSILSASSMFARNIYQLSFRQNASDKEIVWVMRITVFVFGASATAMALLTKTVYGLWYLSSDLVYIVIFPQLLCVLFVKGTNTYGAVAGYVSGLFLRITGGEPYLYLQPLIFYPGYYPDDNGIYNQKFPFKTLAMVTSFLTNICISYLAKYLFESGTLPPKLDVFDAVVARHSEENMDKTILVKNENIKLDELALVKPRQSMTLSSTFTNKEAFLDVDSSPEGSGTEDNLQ

[9] = biological target: MAP kinase-activated protein kinase 3 (Homo sapiens, UniProt Q16644); format: functional;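 also: value comes from a kinome-wide profiling panel in which MAPKAPK3 is one of the panel members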
Sequence of MAP kinase-activated protein kinase 3 (Q16644 whole entry): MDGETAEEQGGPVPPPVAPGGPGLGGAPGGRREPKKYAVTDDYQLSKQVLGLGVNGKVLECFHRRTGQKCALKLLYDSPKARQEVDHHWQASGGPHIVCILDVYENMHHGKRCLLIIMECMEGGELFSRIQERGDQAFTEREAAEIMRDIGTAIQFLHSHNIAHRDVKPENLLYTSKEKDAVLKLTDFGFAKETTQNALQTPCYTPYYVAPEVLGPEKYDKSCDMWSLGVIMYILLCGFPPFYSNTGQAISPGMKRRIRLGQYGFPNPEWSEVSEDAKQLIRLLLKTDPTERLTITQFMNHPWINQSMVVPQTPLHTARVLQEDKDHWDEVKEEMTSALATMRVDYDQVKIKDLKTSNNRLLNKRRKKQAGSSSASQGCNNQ

[10] = biological target: G protein-coupled receptor kinase 5 (Homo sapiens, UniProt P34947); experiment: Navigating the Kinome. Panel member name: GPRK5; format: functional
Sequence of G protein-coupled receptor kinase 5 (P34947 whole entry): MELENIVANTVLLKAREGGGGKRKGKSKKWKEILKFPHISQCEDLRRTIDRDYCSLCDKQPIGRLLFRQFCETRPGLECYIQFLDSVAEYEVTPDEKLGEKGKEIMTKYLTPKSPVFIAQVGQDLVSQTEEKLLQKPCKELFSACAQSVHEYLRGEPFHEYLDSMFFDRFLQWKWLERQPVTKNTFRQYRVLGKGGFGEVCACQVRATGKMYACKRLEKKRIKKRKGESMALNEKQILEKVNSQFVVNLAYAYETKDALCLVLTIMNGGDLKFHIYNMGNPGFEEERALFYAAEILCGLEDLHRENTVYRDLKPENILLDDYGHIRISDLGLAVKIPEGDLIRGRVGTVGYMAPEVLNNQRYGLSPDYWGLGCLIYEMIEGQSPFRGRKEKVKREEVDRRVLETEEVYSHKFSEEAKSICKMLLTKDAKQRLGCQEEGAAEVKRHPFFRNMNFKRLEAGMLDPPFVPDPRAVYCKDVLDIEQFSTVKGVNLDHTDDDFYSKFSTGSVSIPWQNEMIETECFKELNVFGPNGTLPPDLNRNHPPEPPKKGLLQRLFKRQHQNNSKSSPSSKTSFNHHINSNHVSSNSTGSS

[11] = biological target: Protein kinase C zeta type (Homo sapiens, UniProt Q05513); format: functional;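 also: measured as one member of a broad kinase profiling panel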
Sequence of Protein kinase C zeta type (Q05513 whole entry): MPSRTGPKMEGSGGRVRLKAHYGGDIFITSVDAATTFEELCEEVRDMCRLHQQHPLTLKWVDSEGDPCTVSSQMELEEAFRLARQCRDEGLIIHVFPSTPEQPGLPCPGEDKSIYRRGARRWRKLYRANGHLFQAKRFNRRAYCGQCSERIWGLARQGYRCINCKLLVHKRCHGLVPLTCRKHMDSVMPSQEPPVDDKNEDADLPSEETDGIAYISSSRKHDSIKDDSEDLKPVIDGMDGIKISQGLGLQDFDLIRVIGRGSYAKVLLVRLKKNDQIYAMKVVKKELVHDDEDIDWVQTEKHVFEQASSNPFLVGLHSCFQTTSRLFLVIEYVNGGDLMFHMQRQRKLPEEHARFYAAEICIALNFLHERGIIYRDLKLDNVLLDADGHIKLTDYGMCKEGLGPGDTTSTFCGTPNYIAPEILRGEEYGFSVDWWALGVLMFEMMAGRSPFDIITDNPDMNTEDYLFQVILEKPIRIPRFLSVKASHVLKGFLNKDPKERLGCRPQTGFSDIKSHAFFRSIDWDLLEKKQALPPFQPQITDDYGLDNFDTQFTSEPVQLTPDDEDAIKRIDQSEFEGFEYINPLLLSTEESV

[12] = biological target: Protein kinase C gamma type (Homo sapiens, UniProt P05129); format: functional

Sequence of Melanocortin receptor 4 (P32245 whole entry): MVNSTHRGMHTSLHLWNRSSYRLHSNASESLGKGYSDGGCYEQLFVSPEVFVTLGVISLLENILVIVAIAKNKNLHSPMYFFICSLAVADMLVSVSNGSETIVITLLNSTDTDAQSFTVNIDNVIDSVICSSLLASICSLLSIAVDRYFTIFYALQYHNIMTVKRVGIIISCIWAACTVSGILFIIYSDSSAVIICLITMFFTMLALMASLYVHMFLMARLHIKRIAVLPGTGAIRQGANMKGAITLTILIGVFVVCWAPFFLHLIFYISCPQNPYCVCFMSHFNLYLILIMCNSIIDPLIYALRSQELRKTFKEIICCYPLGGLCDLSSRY

For `CC(=O)Oc1ccc2nc(-c3ccco3)oc(=O)c2c1`, the IC50 (Melanocortin receptor 4) was > 64.6 µM (inactive) and the IC50 [1] was > 64.6 µM (inactive).
In the case of `CS(=O)(=O)c1ccc(Oc2c(Cl)cnn(Cc3cccc4ccccc34)c2=O)cc1`, the IC50 [2] is reported as 2.46 µM (active) and the IC50 [3] is reported as 1.13 µM (active).
With `COc1ccc(Oc2c(Cl)cnn(C3c4ccccc4-c4ccccc43)c2=O)cc1` the CC50 [4] was > 20 µM (inactive).
In the case of `Cc1ccc(-n2c(C)cc(/C=N/NC(N)=S)c2C)cc1`, the CC50 [5] is reported as > 40 µM (active), the EC50 [6] is reported as 0.315 µM (active) and the EC50 [7] is reported as > 60 µM (inconclusive). The EC50 [8] was 9.06 µM (active).
With `CCN(CCO)CCCOc1ccc2c(Nc3cc(CC(=O)Nc4cccc(F)c4)[nH]n3)ncnc2c1` [DEFOSBARASERTIB] the Ki [9] was > 10 µM (inactive), the Ki [10] was > 3.98 µM (inactive) and the Ki [11] was > 7.94 µM (inactive). For the same compound, the Ki [12] was > 7.94 µM (inactive).
